Results published in patent US6441021B1, “Sulfonated amino acid derivatives and metalloproteinase inhibitors containing the same” (Shionogi & Co., Ltd., priority 1996, dated 2002).
Like-named read-outs stand apart in the source and are kept apart here.

Key:
[1] = biological target: T1, MMP-9 (92 kDa, gelatinase B; type IV collagenase) (Homo sapiens, UniProt P14780); test: Assay of type IV collagenase inhibitors: activated MMP-9 with type IV collagenase activity kit substrate, fluorescent intensity; assay type: biochemical
T1 construct: endogenous in cells; enzyme purified from the conditioned medium
T1 sequence (P14780 107-707 limits assumed): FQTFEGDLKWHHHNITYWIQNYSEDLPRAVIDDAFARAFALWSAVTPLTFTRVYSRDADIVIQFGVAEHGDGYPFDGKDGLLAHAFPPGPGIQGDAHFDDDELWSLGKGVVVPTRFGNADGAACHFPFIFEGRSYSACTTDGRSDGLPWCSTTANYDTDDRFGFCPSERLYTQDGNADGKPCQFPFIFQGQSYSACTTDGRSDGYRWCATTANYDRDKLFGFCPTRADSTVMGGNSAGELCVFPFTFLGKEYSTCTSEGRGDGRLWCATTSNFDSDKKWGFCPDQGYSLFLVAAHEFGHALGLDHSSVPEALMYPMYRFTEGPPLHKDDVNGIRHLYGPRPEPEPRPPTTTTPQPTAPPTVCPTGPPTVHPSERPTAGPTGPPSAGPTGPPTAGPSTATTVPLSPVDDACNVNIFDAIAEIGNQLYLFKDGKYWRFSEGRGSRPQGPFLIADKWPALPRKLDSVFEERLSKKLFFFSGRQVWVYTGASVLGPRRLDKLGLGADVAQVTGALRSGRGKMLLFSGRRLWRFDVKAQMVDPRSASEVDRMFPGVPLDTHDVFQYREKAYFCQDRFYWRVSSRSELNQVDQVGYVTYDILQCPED
Procedure: (1) Isolation and Purification of MMP-9 (92 kDa, Gelatinase B)
Type IV collagenase (MMP-9) was purified according to the methods descrived in the following literature.
Subsequently, activated MMP-9 was obtained by treating the pro-MMP-9 with trypsin.
(2) Assay Methods of Type IV Collagenase Inhibitors
Collagenase assay was performed using the activated MMP-9 described above and the substrate supplied in the type IV collagenase activity kit (YAGAI, inc.), according to the manufacturer's protocol. The following 4 assays are performed per compound (inhibitor).
(A) substrate (type IV collagenase), enzyme (MMP-9), inhibitor
(B) substrate (type IV collagenase), inhibitor
(C) substrate (type IV collagenase), enzyme (MMP-9)
(D) substrate (type IV collagenase)
According to the manufacturer's protocol, fluorescent intensity was measured and percent inhibition was determined by the following equation.
Inhibition (%)={1−(A−B)/(C−D)}×100

[2] = inhibition of type IV collagenase (MMP-9), concentration at which percent inhibition reaches 50%

| SMILES | IC50 [1] | melting point | IC50 [1, 2] |
| --- | --- | --- | --- |
| CC(C)[C@@H](NS(=O)(=O)c1ccc(NC(=O)c2ccc(Br)cc2)cc1)C(=O)O [Example 202] | 11.4 nM | 229 to 230 °C | – |
| CSc1ccc(C(=O)Nc2ccc(S(=O)(=O)N[C@H](Cc3ccccc3)C(=O)O)cc2)cc1 [Example 191] | 9.5 nM | 232 to 235 °C | – |
| CC(C)[C@H](C(=O)O)N(C)S(=O)(=O)c1ccc(-c2nnn(-c3ccccc3)n2)cc1 [Example 256] | 601 nM | 206 to 207 °C | – |
| CC(C)C[C@H](C(=O)O)N(C)S(=O)(=O)c1ccc(-c2nnn(-c3ccccc3)n2)cc1 [Example 257] | 776 nM | 132 to 132.5 °C | – |
| O=C(Nc1ccc(S(=O)(=O)N[C@H](Cc2c[nH]c3ccccc23)C(=O)O)cc1)c1ccc(F)cc1 (hydrate or solvate) [Example 185] | – | 170 to 175 °C | – |
| CCC(C)[C@@H](NS(=O)(=O)c1ccc(-c2nnn(-c3ccccc3)n2)cc1)C(=O)O (stereo partly shown) [Example 221] | 316 nM | 205 to 207 °C | – |
| CC(C)[C@@H](NS(=O)(=O)c1ccc(-c2nnn(-c3ccc(O)cc3)n2)cc1)C(=O)O [Example 223] | 349 nM | 190 °C (dec.) | – |
| O=C(O)[C@@H](Cc1ccccc1)NS(=O)(=O)c1ccc(-c2nnn(-c3ccc([N+](=O)[O-])cc3)n2)cc1 (hydrate or solvate) [Example 230] | – | 190 to 191 °C | – |
| Cc1cnc(C(=O)Nc2ccc(S(=O)(=O)N[C@H](Cc3ccccc3)C(=O)O)cc2)cn1 [Example 204] | 3950 nM | 236 to 237 °C | – |
| CC(C)(C)c1ccc(-n2nnc(-c3ccc(S(=O)(=O)N[C@H](Cc4ccccc4)C(=O)O)cc3)n2)cc1 [Example 236] | 304 nM | 224 to 226 °C | – |
| Cc1ccc(C(=O)Nc2ccc(S(=O)(=O)N[C@H](Cc3c[nH]c4ccccc34)C(=O)O)cc2)cc1 (hydrate or solvate) [Example 182] | – | 240 to 244 °C | – |
| O=C(O)[C@@H](Cc1ccccc1)NS(=O)(=O)c1ccc(-c2nnn(-c3ccc(F)cc3)n2)cc1 (hydrate or solvate) [Example 231] | – | 205 to 207 °C | – |
| CC(C)[C@@H](NS(=O)(=O)c1ccc(NC(=O)c2ccc(-c3ccccc3)cc2)cc1)C(=O)O (hydrate or solvate) [Example 195] | – | 254 to 256 °C | – |
| O=C(O)[C@@H](Cc1ccccc1)NS(=O)(=O)c1ccc(-c2nnn(-c3ccc(Oc4ccccc4)cc3)n2)cc1 [Example 238] | 2850 nM | 182 to 184 °C | – |
| Cc1ccc(-n2nnc(-c3ccc(S(=O)(=O)N[C@H](Cc4c[nH]c5ccccc45)C(=O)O)cc3)n2)cc1 (hydrate or solvate) [Example 241] | – | 199 to 201 °C | – |
| Cc1ccc(C(=O)Nc2ccc(S(=O)(=O)N[C@@H](C(=O)O)C(C)C)cc2)cc1 (hydrate or solvate) [Example 196] | – | 227 to 229 °C | – |
| COc1ccc(-n2nnc(-c3ccc(S(=O)(=O)N[C@H](Cc4ccccc4)C(=O)O)cc3)n2)cc1 (hydrate or solvate) [Example 234] | – | 214 to 216 °C | – |
| CSc1ccc(-n2nnc(-c3ccc(S(=O)(=O)N[C@@H](C(=O)O)C(C)C)cc3)n2)cc1 (hydrate or solvate) [Example 245] | – | 194 to 195 °C | – |
| CC(C)[C@@H](NS(=O)(=O)c1ccc(-c2nnn(-c3ccc(Br)cc3)n2)cc1)C(=O)O (hydrate or solvate) [Example 225] | – | 227 to 228 °C | – |
| Cc1ccc(-n2nnc(-c3ccc(S(=O)(=O)N[C@H](Cc4ccccc4)C(=O)O)cc3)n2)cc1 (hydrate or solvate) [Example 233] | – | 226 to 227 °C | – |
| O=C(Nc1ccc(S(=O)(=O)N[C@H](Cc2ccccc2)C(=O)O)cc1)c1ccccc1 [Example 188] | – | 114 to 115 °C | 843 nM |
| CSc1ccc(-c2ccc(S(=O)(=O)N(C)[C@@H](C(=O)O)C(C)C)s2)cc1 [Example 259] | 130 nM | 141 to 144 °C | – |
| Cn1cc(CC(NS(=O)(=O)c2ccc(-c3nnn(-c4ccccc4)n3)cc2)C(=O)O)c2ccccc21 (stereo not shown) [Example 212] | 393 nM | 199 to 202 °C | – |
| O=C(Nc1ccc(S(=O)(=O)N[C@H](Cc2ccccc2)C(=O)O)cc1)c1ccc(Cl)nc1 [Example 193] | 722 nM | 201 to 203 °C | – |
| CSc1ccc(-n2nnc(-c3ccc(S(=O)(=O)N[C@H](Cc4ccccc4)C(=O)O)cc3)n2)cc1 (hydrate or solvate) [Example 246] | – | 222 to 224 °C | – |
| O=C(O)C(Cc1c[nH]c2ccc(F)cc12)NS(=O)(=O)c1ccc(-c2nnn(-c3ccccc3)n2)cc1 (stereo not shown) [Example 213] | 128 nM | 224 to 225 °C | – |

| SMILES | IC50 [1] | melting point | IC50 [1, 2] |
| --- | --- | --- | --- |
| CSc1ccc(-n2nnc(-c3ccc(S(=O)(=O)N[C@H](Cc4c[nH]c5ccccc45)C(=O)O)cc3)n2)cc1 (hydrate or solvate) [Example 247] | – | 213 to 216 °C | – |
| CCC(C)[C@@H](NS(=O)(=O)c1ccc(-c2nnn(-c3ccc(OC)cc3)n2)cc1)C(=O)O (stereo partly shown) (hydrate or solvate) [Example 222] | – | 204 to 207 °C | – |
| O=C(Nc1ccc(S(=O)(=O)N[C@H](Cc2ccccc2)C(=O)O)cc1)c1ccc(F)cc1 [Example 192] | 324 nM | 218 to 220 °C | – |
| CC(C)[C@@H](NS(=O)(=O)c1ccc(NC(=O)c2ccc(F)cc2)cc1)C(=O)O [Example 198] | 493 nM | 235 to 236 °C | – |
| Cc1ccc(C(=O)Nc2ccc(S(=O)(=O)N[C@H](Cc3ccccc3)C(=O)O)cc2)cc1 [Example 190] | – | 242 to 244 °C | 59.7 nM |
| COc1ccc(-n2nnc(-c3ccc(S(=O)(=O)N[C@H](Cc4c[nH]c5ccccc45)C(=O)O)cc3)n2)cc1 [Example 220] | – | 195 to 196 °C | – |
| Cc1cccc2[nH]cc(CC(NS(=O)(=O)c3ccc(-c4nnn(-c5ccccc5)n4)cc3)C(=O)O)c12 (stereo not shown) [Example 216] | 107 nM | 145 to 148 °C | – |
| COc1ccc(-n2nnc(-c3ccc(S(=O)(=O)N[C@@H](C(=O)O)C(C)(C)C)cc3)n2)cc1 [Example 226] | 166 nM | 204 to 207 °C | – |
| CC(C)[C@@H](NS(=O)(=O)c1ccc(-c2nnn(-c3ccc(Cl)cc3)n2)cc1)C(=O)O [Example 244] | 16.5 nM | 223 to 225 °C | – |
| CC(C)C[C@@H](NS(=O)(=O)c1ccc(-c2nnn(-c3ccccc3)n2)cc1)C(=O)O [Example 214] | 832 nM | 202 to 204 °C | – |
| O=C(O)[C@@H](Cc1ccccc1)NS(=O)(=O)c1ccc(-c2nnn(-c3ccc(Cl)cc3)n2)cc1 (hydrate or solvate) [Example 232] | – | 204 to 206 °C | – |
| Nc1ccc(C(=O)Nc2ccc(S(=O)(=O)N[C@H](Cc3c[nH]c4ccccc34)C(=O)O)cc2)cc1 [Example 179] | 2360 nM | 216 to 218 °C | – |
| O=Cn1cc(C[C@@H](NS(=O)(=O)c2ccc(-c3nnn(-c4ccccc4)n3)cc2)C(=O)O)c2ccccc21 (hydrate or solvate) [Example 219] | – | 111 to 114 °C | – |
| O=C(O)[C@@H](Cc1ccccc1)NS(=O)(=O)c1ccc(-c2nnn(-c3ccc(C4CCCCC4)cc3)n2)cc1 (hydrate or solvate) [Example 237] | – | 225 to 227 °C | – |
| COc1ccc(C(=O)Nc2ccc(S(=O)(=O)N[C@@H](C(=O)O)C(C)C)cc2)cc1 (hydrate or solvate) [Example 200] | – | 220 to 221 °C | – |
| COc1ccc(C(=O)Nc2ccc(S(=O)(=O)N[C@@H](C(=O)O)C(C)(C)C)cc2)cc1 (hydrate or solvate) [Example 203] | – | 214 to 216 °C | – |
| O=C(Nc1ccc(S(=O)(=O)N[C@H](Cc2c[nH]c3ccccc23)C(=O)O)cc1)c1ccc(Br)cc1 (hydrate or solvate) [Example 183] | – | 215 to 218 °C | – |
| CSc1ccc(C(=O)Nc2ccc(S(=O)(=O)N[C@H](Cc3c[nH]c4ccccc34)C(=O)O)cc2)cc1 (hydrate or solvate) [Example 184] | – | 244 to 249 °C | – |
| CC(C)[C@@H](NS(=O)(=O)c1ccc(NC(=O)c2ccccc2)cc1)C(=O)O (hydrate or solvate) [Example 199] | – | 226 to 227 °C | – |
| CC(C)[C@@H](NS(=O)(=O)c1ccc(-c2nnn(-c3ccc(F)cc3)n2)cc1)C(=O)O (hydrate or solvate) [Example 243] | – | 208 to 209 °C | – |
| O=C(Nc1ccc(S(=O)(=O)N[C@H](Cc2c[nH]c3ccccc23)C(=O)O)cc1)c1ccc([N+](=O)[O-])cc1 (hydrate or solvate) [Example 180] | – | 211 to 213 °C | – |
| Cc1ccc(-n2nnc(-c3ccc(S(=O)(=O)N[C@@H](C(=O)O)C(C)C)cc3)n2)cc1 (hydrate or solvate) [Example 242] | – | 206 to 207 °C | – |
| N#Cc1ccc(-n2nnc(-c3ccc(S(=O)(=O)N[C@H](Cc4ccccc4)C(=O)O)cc3)n2)cc1 (hydrate or solvate) [Example 235] | – | 190 to 192 °C | – |
| O=C(O)C(Cc1cccc2ccccc12)NS(=O)(=O)c1ccc(-c2nnn(-c3ccccc3)n2)cc1 (stereo not shown) (hydrate or solvate) [Example 218] | – | 225 to 227 °C | – |
| O=C(O)[C@@H](Cc1c[nH]c2ccccc12)NS(=O)(=O)c1ccc(-c2nnn(-c3ccc(Br)cc3)n2)cc1 (hydrate or solvate) [Example 240] | – | 205 to 207 °C | – |
